# Measurements reported in patent publication US20040259815A1, “Anti-proliferative composition” (priority 2001, published 2004).
# Tested on: human prostate cancer cell line PC3
# Assay: Proliferation of PC3 cells after 4 days exposure (BrdU incorporation and WST-1 assays)
# Format: cell-based
# Conditions: PC-3, 96 h, component alone, PC3 cells exposed for 4 days
# Protocol: Stock solutions were prepared as follows: Genistein and silymarin were dissolved in ethanol. Daidzein and equol were dissolved in dimethyl sulfoxide (DMSO). Lycopene was dissolved in 0.02M HCl
# The PC3 cell line (American Type Culture Collection, Mannassas, USA), a highly resistant prostate cancer cell line originating from a metastasis lesion of bone, was maintained as monolayer cultures in RPMI medium (Gibco, Life technologies BV, Breda, Netherlands) supplemented with 5% FCS (Gibco). The cells were grown mycoplasm free in plastic tissue culture flasks (Falcon, Micronic, Lelystad, Netherlands). Cultures were kept in a 5% CO2 humidified atmosphere, at a temperature of 37° C. Media were replaced every 2 or 3 days, and cells were subcultured at weekly intervals using a 0.05% trypsin and 0.01% EDTA.
# The PC3 cells were seeded into flat-bottomed 96-well tissue culture treated plates (Falcon, Micronic, Lelystad, Netherlands) at a density of 16000 cells per well. After 24 h incubation, vehicle controls, test components or combinations of the test components were added to the medium (20 μl added to 200 μl medium in well). The components were tested in combination to determine additional or synergistic effects. PC3 cells were exposed for 4 days.
# Cell proliferation was quantified by measuring the incorporation of 5-bromo-2′-deoxyuridine (BrdU) during DNA synthesis and by cleavage of tetrazolium salt (WST-1) in viable cells by mitochondrial dehydrogenases. The calorimetric BrdU (immunoassay) and colorimetric WST-1 assay were performed in accordance with the manufacturer's instructions (Roche Diagnostics Mannheim, Germany). Briefly, BrdU-assay: After the exposure period, the cells were treated with BrdU-labeling solution for 3 hours. After labeling, cells were washed with PBS, fixed for 30 minutes and washed again with PBS. After 90 minutes incubation with the anti-BrdU-POD working solution, the cells were washed 3 times. After addition of the substrate, the reaction was stopped with H2SO4. The absorbance was measured at 450 nm with a reference wavelength at 650 nm. WST-1 assay: After the exposure period, the cells were washed with PBS and treated with WST-1 diluted in medium (1:10). After 3 hours incubation, the absorbance was measured at 450 nm with a reference at 595 nm.
smiles,measurement,setting,value
"O=c1c(-c2ccc(O)cc2)coc2cc(O)cc(O)c12 [Genistein, genistein]",inhibition at 27 µg/mL,"27 μg/ml, read-out: inhibition of proliferation of human prostate cancer cell line PC3 (mean±s.e.)",20.2 ± 4.6%
O=c1c(-c2ccc(O)cc2)coc2cc(O)ccc12 [daidzein],inhibition at 25 µg/mL,"25 μg/ml, stated as not significant, read-out: inhibition of growth of the PC3 cells",10 ± 6%
Oc1ccc([C@H]2COc3cc(O)ccc3C2)cc1 [equol],inhibition at 26 µg/mL,"26 μg/ml, read-out: inhibition of proliferation of human prostate cancer cell line PC3 (mean±s.e.)",30.1 ± 4.4%
CC(C)=CCC/C(C)=C/C=C/C(C)=C/C=C/C(C)=C/C=C/C=C(C)/C=C/C=C(C)/C=C/C=C(\C)CCC=C(C)C [lycopene],inhibition at 53 µg/mL,"53 μg/ml, stated as not significant, read-out: inhibition of growth of the PC3 cells",7.3 ± 2.7%
